Results as given in ChEMBL document CHEMBL1155190, “Identification of a cell-active non-peptide sirtuin inhibitor containing N-thioacetyl lysine” (Bioorg Med Chem Lett, 2009).

What was measured:
[1] = biological target: T1, NAD-dependent protein deacetylase sirtuin-3, mitochondrial (Homo sapiens, UniProt Q9NTG7); assay: Inhibition of human recombinant SIRT3 after 60 mins by fluorimetric analysis
T1 sequence (Q9NTG7 whole entry): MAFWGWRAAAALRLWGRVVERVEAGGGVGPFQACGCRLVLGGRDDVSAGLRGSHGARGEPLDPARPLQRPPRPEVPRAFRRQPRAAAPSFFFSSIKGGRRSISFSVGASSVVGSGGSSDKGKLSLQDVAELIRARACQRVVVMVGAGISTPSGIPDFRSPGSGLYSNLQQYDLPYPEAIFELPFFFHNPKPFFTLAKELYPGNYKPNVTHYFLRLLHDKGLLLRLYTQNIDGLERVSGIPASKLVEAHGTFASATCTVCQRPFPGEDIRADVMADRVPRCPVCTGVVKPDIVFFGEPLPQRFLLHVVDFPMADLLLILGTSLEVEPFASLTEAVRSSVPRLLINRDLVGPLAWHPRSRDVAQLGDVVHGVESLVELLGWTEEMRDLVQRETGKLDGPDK

[2] = biological target: T2, NAD-dependent protein deacetylase sirtuin-2 (Homo sapiens, UniProt Q8IXJ6); assay: Inhibition of human recombinant SIRT2 after 60 mins by fluorimetric analysis
T2 sequence (Q8IXJ6 whole entry): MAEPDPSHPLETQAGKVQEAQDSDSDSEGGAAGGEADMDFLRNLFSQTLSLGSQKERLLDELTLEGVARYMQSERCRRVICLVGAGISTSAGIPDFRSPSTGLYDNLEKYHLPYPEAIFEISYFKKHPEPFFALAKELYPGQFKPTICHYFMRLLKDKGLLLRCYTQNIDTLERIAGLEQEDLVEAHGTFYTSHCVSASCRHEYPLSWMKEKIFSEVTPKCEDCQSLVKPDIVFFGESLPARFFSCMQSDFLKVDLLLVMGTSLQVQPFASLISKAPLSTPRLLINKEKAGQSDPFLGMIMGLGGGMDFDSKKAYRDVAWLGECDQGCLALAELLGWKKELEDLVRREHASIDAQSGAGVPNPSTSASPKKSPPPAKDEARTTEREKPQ

[3] = biological target: T3, NAD-dependent protein deacetylase sirtuin-1 (Homo sapiens, UniProt Q96EB6); assay: Inhibition of human recombinant SIRT1 after 60 mins by fluorimetric analysis
T3 sequence (Q96EB6 whole entry): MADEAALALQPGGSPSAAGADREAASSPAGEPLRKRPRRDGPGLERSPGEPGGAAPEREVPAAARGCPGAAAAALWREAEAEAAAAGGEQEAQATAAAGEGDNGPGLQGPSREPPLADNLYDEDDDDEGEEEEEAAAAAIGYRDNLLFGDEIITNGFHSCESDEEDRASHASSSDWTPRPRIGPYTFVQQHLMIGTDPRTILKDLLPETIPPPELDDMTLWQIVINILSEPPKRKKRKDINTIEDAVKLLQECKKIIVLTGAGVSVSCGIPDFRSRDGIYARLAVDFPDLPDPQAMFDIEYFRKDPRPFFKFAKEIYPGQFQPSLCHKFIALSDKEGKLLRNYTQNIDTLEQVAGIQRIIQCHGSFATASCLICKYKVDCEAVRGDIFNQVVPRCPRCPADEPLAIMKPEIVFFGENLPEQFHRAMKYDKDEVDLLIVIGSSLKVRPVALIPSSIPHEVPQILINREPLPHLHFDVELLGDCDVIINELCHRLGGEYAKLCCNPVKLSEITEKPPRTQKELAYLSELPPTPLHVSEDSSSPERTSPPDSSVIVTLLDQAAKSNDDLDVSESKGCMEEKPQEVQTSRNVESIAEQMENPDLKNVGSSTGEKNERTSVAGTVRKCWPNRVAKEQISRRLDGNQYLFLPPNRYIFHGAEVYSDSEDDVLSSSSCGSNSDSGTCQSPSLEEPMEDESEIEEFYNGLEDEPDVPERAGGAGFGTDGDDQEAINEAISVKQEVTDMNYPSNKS

Compound: CC(=S)NCCCC[C@H](NC(=O)OCc1ccccc1)C(=O)Nc1ccccc1
- IC50 [1]: > 100 µM
- IC50 [2]: 23 µM
- IC50 [3]: 2.7 µM
